Test results published in ChEMBL document CHEMBL5725623, “4-azaindole derivatives” (2018).

Assay: Positive allosteric modulator pEC50 values and antagonist pIC50 values for each compound were then determined. […] Data analysis was carried out using a 4 parameter logistic nonlinear regression model with the XLFIT (IDBS) excel add-in10. 1-10 Examples 76-80 and 82-89 were tested in a slightly modified procedure. The points of modification and the alternate reagents, concentrations or equipment employed in these examples were: 1200 μg/ml hygromycin B; 2G418 not added; 3CELLBANKER 1; 410E6; 5 40 μl; 6 1 in 99; 7 20 μl; 8FDSS6000 (Hamamatsu Photonics); 9(480Ex, 540Em); 10Spotfire (TIBCO).As measured by the above in vitro assay, compound Examples 1 to 105 are positive allosteric modulators of mAChR M1 displaying the pEC50 values for positive allosteric modulation given in Table 2.
Conditions: 0.5 h

## COc1ccc(Cn2cc(C(=O)NC3CCOC[C@@H]3O)c3nccc(C)c32)cc1 (stereo partly specified)
  EC50: 0.01 µM

## COc1ccc(Cn2cc(C(=O)NC3CCOC[C@@H]3O)c3nccc(C)c32)cc1F (stereo partly specified)
  EC50: 0.0126 µM

## COc1ccc(Cn2cc(C(=O)NC3CCOC[C@@H]3O)c3nccc(Cl)c32)cc1 (stereo partly specified)
  EC50: 0.0126 µM

## COc1cc(Cn2cc(C(=O)NC3CCOC[C@@H]3O)c3nccc(C)c32)ccn1 (stereo partly specified)
  EC50: 0.0501 µM

## Cc1ccnc2c(C(=O)NC3CCOC[C@@H]3O)cn(Cc3ccc(F)cc3)c12 (stereo partly specified)
  EC50: 0.0158 µM

## O=C(NC1CCC(F)(F)C[C@H]1O)c1cn(Cc2ccc(F)cc2)c2cccnc12 (stereo partly specified)
  EC50: 0.794 µM
